Structures can show the parent of a compound that is named as a salt.
| SMILES | melting point |
| --- | --- |
| O=C(O)COc1cccc(CN2CCC(CCC(=O)c3ccc4c(c3)CN(Cc3ccc(F)cc3)CCO4)CC2)c1 (as salt: hydrochloride) | 201 to 204 °C |
| CC(c1ccccc1)N1CCC(CCC(=O)c2ccc3c(c2)CN(Cc2ccc(F)cc2)CCO3)CC1 (stereo not shown) (as salt: hydrochloride) | 235 to 237 °C |
| O=C(CCC1CCN(Cc2ccc(C(F)(F)F)cc2)CC1)c1ccc2c(c1)CN(Cc1ccccc1)CCO2 (as salt: hydrochloride) | 239 to 241 °C |
| O=C(CCC1CCN(Cc2cc(C(F)(F)F)cc(C(F)(F)F)c2)CC1)c1ccc2c(c1)CN(Cc1ccccc1)CCO2 (as salt: hydrochloride) | 234 to 236 °C |
| Cc1ccccc1CN1CCC(CCC(=O)c2ccc3c(c2)CN(Cc2ccccc2)CCO3)CC1 (as salt: hydrochloride) | 232 to 234 °C |
| CCOC(=O)c1ccc(CN2CCC(CCC(=O)c3ccc4c(c3)CCN(Cc3ccc(F)cc3)CC4)CC2)cc1 (as salt: hydrochloride) | 212 to 218 °C (dec.) |
| Cc1ccc(CN2CCC(CCC(=O)c3ccc4c(c3)CN(Cc3ccccc3)CCO4)CC2)cc1 (as salt: hydrochloride) | 236 to 238 °C |
| O=C(CCC1CCN(Cc2ccccc2F)CC1)c1ccc2c(c1)CN(Cc1ccccc1)CCO2 (as salt: hydrochloride) | 242 to 244 °C |
| O=C(CCC1CCN(Cc2cccc(C(F)(F)F)c2)CC1)c1ccc2c(c1)CN(Cc1ccc(F)cc1)CCO2 (as salt: hydrochloride) | 225 to 227 °C |
| O=C(CCC1CCN(Cc2ccccc2Cl)CC1)c1ccc2c(c1)CN(Cc1ccc(F)cc1)CCO2 (as salt: hydrochloride) | 227 to 229 °C |
| Cc1cccc(CN2CCC(CCC(=O)c3ccc4c(c3)CN(Cc3ccccc3)CCO4)CC2)c1 (as salt: hydrochloride) [Example 4, 3-[1-[(3-Methylphenyl)methyl]-4-piperidinyl]-1-[4-(phenylmethyl)-2,3,4,5-tetrahydro-1,4-benzoxazepin-7-yl]-1-propanone Dihydrochloride] | 212 to 214 °C |
| O=C(CCC1CCN(Cc2ccccc2C(F)(F)F)CC1)c1ccc2c(c1)CN(Cc1ccccc1)CCO2 (as salt: hydrochloride) [Example 12, 1-[4-(Phenylmethyl)-2,3,4,5-tetrahydro-1,4-benzoxazepin-7-yl]-3-[1-[(2-trifluoromethylphenyl)methyl]-4-piperidinyl]-1-propanone Dihydrochloride] | 223 to 225 °C |
| CCOC(=O)C(C)(C)c1ccc(CN2CCC(CCC(=O)c3ccc4c(c3)CCN(Cc3ccc(F)cc3)CC4)CC2)cc1 (as salt: hydrochloride) [Example 43, Ethyl 2-methyl-2-[4-[[4-[3-[3-[(4-fluorophenyl)methyl]-2,3,4,5-tetrahydro-1H-3-benzazepin-7-yl]-3-oxopropyl]-1-piperidinyl]methyl]phenyl]propionate Dihydrochloride] | 228 to 231 °C (dec.) |
| CCOC(=O)COc1ccc(CN2CCC(CCC(=O)c3ccc4c(c3)CCN(Cc3ccc(F)cc3)CC4)CC2)cc1 (as salt: hydrochloride) [Example 45, Ethyl 2-[4-[[4-[3-[3-[(4-fluorophenyl)methyl]-2,3,4,5-tetrahydro-1H-3-benzazepin-7-yl]-3-oxopropyl]-1-piperidinyl]methyl]phenoxy]ethanoate Dihydrochloride] | 206 to 208 °C |
| Cc1cccc(CN2CCC(CCC(=O)c3ccc4c(c3)CN(Cc3ccc(F)cc3)CCO4)CC2)c1 (as salt: hydrochloride) [Example 79, 1-[4-[(4-Fluorophenyl)methyl]-2,3,4,5-tetrahydro-1,4-benzoxazepin-7-yl]-3-[1-[(3-methylphenyl)methyl]-4-piperidinyl]-1-propanone Dihydrochloride] | 223 to 225 °C |
| O=C(CCC1CCN(Cc2cccc(Cl)c2)CC1)c1ccc2c(c1)CN(Cc1ccc(F)cc1)CCO2 (as salt: hydrochloride) [Example 80, 3-[1-[(3-Chlorophenyl)methyl]-4-piperidiny]-1-[4-[(4-fluorophenyl)methyl]-2,3,4,5-tetrahydro-1,4-benzoxazepin-7-yl]-1-propanone Dihydrochloride] | 224 to 225 °C |
| O=C(CCC1CCN(Cc2cccc(F)c2)CC1)c1ccc2c(c1)CN(Cc1ccc(F)cc1)CCO2 (as salt: hydrochloride) [Example 81, 3-[1-[(3-Fluorophenyl)methyl]-4-piperidiny]-1-[4-[(4-fluorophenyl)methyl]-2,3,4,5-tetrahydro-1,4-benzoxazepin-7-yl]-1-propanone Dihydrochloride] | 228 to 231 °C |
| Cc1ccccc1CN1CCC(CCC(=O)c2ccc3c(c2)CN(Cc2ccc(F)cc2)CCO3)CC1 (as salt: hydrochloride) [Example 83, 1-[4-[(4-Fluorophenyl)methyl]-2,3,4,5-tetrahydro-1,4-benzoxazepin-7-yl]-3-[1-[(2-methylphenyl)methy]-4-piperidinyl]-1-propanone Dihydrochloride] | 216 to 219 °C |
| O=C(CCC1CCN(Cc2ccc(C(F)(F)F)cc2)CC1)c1ccc2c(c1)CN(Cc1ccc(F)cc1)CCO2 (as salt: hydrochloride) [Example 88, 1-[4-[(4-Fluorophenyl)methyl]-2,3,4,5-tetrahydro-1,4-benzoxazepin-7-yl]-3-[1-[[4-(trifluoromethyl)phenyl]methyl]-4-piperidinyl]-1-propanone Dihydrochloride] | 234 to 237 °C |
| COc1ccc(CN2CCc3ccc(C(=O)CCC4CCN(Cc5ccc(C(C)(C)C)cc5)CC4)cc3CC2)cc1 (as salt: hydrochloride) [Example 93, 1-[3-[(4-methbyphenyl)methyl]-2,3,4,5-tetrahydro-1H-3-benzazepin-7-yl]3-[1-[[4-(tert-butyl)phenyl]methyl]-4-piperidinyl]-1-propanone Dihydrochloride] | 241 to 244 °C (dec.) |

The next lines start with the values.

| melting point | SMILES |
| --- | --- |
| 243 to 245 °C | O=C(CCC1CCN(Cc2ccncc2)CC1)c1ccc2c(c1)CN(Cc1ccccc1)CCO2 (as salt: hydrochloride) |
| 179 to 182 °C | Cc1cccc(CN2CCC(CCCC(=O)c3ccc4c(c3)CCN(Cc3ccccc3C)CC4)CC2)c1 (as salt: hydrochloride) |
| 165 to 168 °C | Cc1ccccc1CN1CCc2ccc(C(=O)CCCC3CCN(Cc4ccccc4Cl)CC3)cc2CC1 (as salt: hydrochloride) |
| 230 to 234 °C (dec.) | O=C(CCCC1CCN(Cc2cccc(Cl)c2)CC1)c1ccc2c(c1)CCN(Cc1ccccc1)CC2 (as salt: hydrochloride) |
| 209 to 212 °C | Cc1cccc(CN2CCc3ccc(C(=O)CCCC4CCN(Cc5ccc(F)cc5)CC4)cc3CC2)c1 (as salt: hydrochloride) |
| 172 to 174 °C | Cc1ccc(CN2CCC(CCCC(=O)c3ccc4c(c3)CCN(Cc3cccc([N+](=O)[O-])c3)CC4)CC2)cc1 (as salt: hydrochloride) |
| 245 to 247 °C | O=C(CCC1CCNCC1)c1ccc2c(c1)CN(Cc1ccc(F)cc1)CCC2 (as salt: hydrochloride) |
| 111 to 113 °C | COC(=O)c1ccccc1CN1CCc2ccc(C(=O)CCCC3CCN(Cc4ccccc4C)CC3)cc2CC1 (as salt: hydrochloride) |
| 230 to 235 °C | Cc1ccccc1CN1CCc2ccc(C(=O)CCCC3CCN(Cc4ccccc4N)CC3)cc2CC1 (as salt: hydrochloride) |
| 176 to 189 °C (dec.) | CNC(=O)Nc1ccccc1CN1CCC(CCCC(=O)c2ccc3c(c2)CCN(Cc2ccccc2C)CC3)CC1 (as salt: hydrochloride) |
| 212 to 214 °C | O=C(CCC1CCN(Cc2ccc(F)cc2)CC1)c1ccc2c(c1)CN(Cc1ccccc1)CCO2 (as salt: hydrochloride) [Example 8, 3-[1-[(4-Fluorophenyl)methyl]-4-piperidinyl]-1-[4-(phenylmethyl)-2,3,4 5-tetrahydro-1,4-benzoxazepin-7-yl]-1-propanone Dihydrochloride] |
| 201 to 203 °C | O=C(CCCC1CCNCC1)c1ccc2c(c1)CCN(Cc1ccccc1)CC2 (as salt: hydrochloride) [Example 26, 1-[3-(Phenylmethyl)-2,3,4,5-tetrahydro-1H-3-benzazepin-7-yl]-4-(4-piperidinyl)-1-butanone Dihydrochloride] |
| 219 to 222 °C (dec.) | O=C(CCC1CCN(Cc2ccc(Cl)cc2)CC1)c1ccc2c(c1)CCN(Cc1ccc(F)cc1)CC2 (as salt: hydrochloride) [Example 41, 3-[1-[(4-Chlorophenyl)methyl]-4-piperidinyl]-1-[3-[(4-fluorophenyl)methyl]-2,3,4,5-tetrahydro-1H-3-benzazepin-7-yl]-1-propanone Dihydrochloride] |
| 213 to 216 °C (dec.) | CN1CCC(CCC(=O)c2ccc3c(c2)CCN(Cc2ccc(F)cc2)CC3)CC1 (as salt: hydrochloride) [Example 42, 1-[3-[(4-Fluorophenyl)methyl]-2,3,4,5-tetrahydro-1H-3-benzazepin-7-yl]-3-(1-methyl-4-piperidinyl)-1-propanone Dihydrochloride] |
| 225 to 228 °C (dec.) | O=C(CCC1CCN(Cc2ccc(-c3ccccc3)cc2)CC1)c1ccc2c(c1)CCN(Cc1ccc(F)cc1)CC2 (as salt: hydrochloride) [Example 49, 1-[3-[(4-Fluorophenyl)methyl]-2,3,4,5-tetrahydro-1H-3-benzazepin-7-yl]-3-[1-[(4-phenylphenyl)methyl]-4-piperidinyl]-1-propanone Dihydrochloride] |
| 173 to 174 °C | O=C(CCC1CCNCC1)c1ccc2c(c1)CN(Cc1ccc(F)cc1)CCO2 (as salt: hydrochloride) [Example 78, 1-[4-[(4-Fluorophenyl)methyl]-2,3,4,5-tetrahydro-1,4-benzoxazepin-7-yl]-3-(4-piperidinyl)-1-propanone Dihydrochloride] |
| 220 to 223 °C (dec.) | COc1ccc(CN2CCc3ccc(C(=O)CCC4CCN(Cc5ccc(Cl)c(Cl)c5)CC4)cc3CC2)cc1 (as salt: hydrochloride) [Example 96, 3-[1-[(3,4-Dichlorophenyl)methyl]-4-piperidinyl]-1-[3-[(4-methoxyphenyl)methyl]-2,3,34,5-tetrahydro-1H-3-benzazepin-7-yl]-1-propanone Dihydrochloride] |

Source: patent publication US6534496B1, “Thermogenic composition and benzazepine thermogenics” (Takeda Chemical Industries, Inc., priority 1997, dated 2003)
